Reference: patent publication US20260146232A1, “METHODS FOR PROMOTING HOMING AND ENGRAFTMENT OF HEMATOPOIETIC STEM CELLS” (The Trustees of Indiana University, priority 2022, published 2026)

How the values were obtained:
human CB CD34+ cells [1] = experiment: Chemotaxis (transwell migration) assay toward SDF-1, CB CD34+ cells; assay type: cell-based; settings: for chemotaxis of human CB CD34+ cells toward SDF-1: 20 h
Procedure: (§1) Chemotaxis assay. Chemotaxis assays were performed in Costar 24-well trans-well plates with 6.5 mm diameter inserts with 5.0 μm pores (Corning, NY, USA). Briefly, 650 μL of IMDM medium (37° C.) that contained 0.5% bovine serum albumin (Sigma-Aldrich) and SDF-1 (0, 50 ng/mL) was added to the bottom well. Cells were suspended at 1×10^5 cells/100 μL in IMDM medium and loaded to the upper chamber of the trans-well. Trans-well plates were placed in a 37° C. incubator with 95% humidity and 5% CO2 for 4 hours. Percent migration was measured using flow cytometry with number of cells in the bottom chamber divided by number of cells placed in the upper chamber. To calculate the percent migration of CB HSCs, phenotypic HSCs was determined by surface staining and flow cytometry analysis. Human CB HSC chemotaxis was calculated as number of HSCs in the bottom chamber divided by number of HSCs loaded in the upper chamber. For AMD3100 administration, cells were treated with 5 μg/mL AMD3100 (239820, Sigma-Aldrich) for 30 min right before the chemotaxis assay.

CXCR4 = experiment: Surface CXCR4 protein level (MFI) by flow cytometry; assay type: cell-based, human; settings: for effect of FTO inhibitor on AGII-induced CXCR4 upregulation: AGII-treated cells plus FTO inhibitor; for CXCR4 expression (MFI of cell surface CXCR4 protein level): human CB CD34+ cells treated 20 h, screen 10 μM unless otherwise stated; for effect of inhibition of mir-145 (sh-mir-145) on compound-induced CXCR4 expression: human CB CD34+ cells treated with compound and sh-mir-145
From the text: (§2) Human CD34^+ CB cell collection and culture. Umbilical CB units were supplied by Cleveland Cord Blood Bank and CordUse, Orlando, FL, USA. All studies were approved by the institutional review board of the IUSM. Mononuclear cells were isolated by density gradient centrifugation and CD34^+ cells were isolated by immunomagnetic selection kit (Miltenyi Biotec, 130-046-702). […] For molecular compound treatment, all reagents were ordered from Cayman Chemical (Ann Arbor, MI, USA). Briefly, molecular compounds were added in the initiation of human CB CD34^+ cells culture, the time and concentration of each molecular compound for cell treatment was shown in figure legends.
Flow cytometry. Fresh or cultured CB cells were sorted for different phenotypes by using the following antibodies. Antibodies were used to detect CD34 (BV786, BD Biosciences, 744741), CD34 (FITC, BD Biosciences, 340668), CD45RA (Taxe-red, BD Biosciences, 562298), CD90 (BV421, BD Biosciences, 562556), CD49f (cy5.5, BD Biosciences, 562495), CD38 (PE, BD Biosciences, 560981). CD3 (BV421, BD Biosciences, 562427), CD33 (PE, BD Biosciences, 555450), CD19 (PE, BD Biosciences, 555413), CXCR4 (APC, BD Biosciences, 555976) and CD45 (APC, BD Biosciences, 555485). Gating strategy of phenotypic HSCs were shown in supplementary FIG. 2B.

mir-145 = experiment: Relative mir-145 expression level in human CB CD34+ cells; assay type: cell-based; settings: human CB CD34+ cells treated 20 hours
From the text: Human CD34^+ CB cell collection and culture. Umbilical CB units were supplied by Cleveland Cord Blood Bank and CordUse, Orlando, FL, USA. All studies were approved by the institutional review board of the IUSM. Mononuclear cells were isolated by density gradient centrifugation and CD34^+ cells were isolated by immunomagnetic selection kit (Miltenyi Biotec, 130-046-702). […] For molecular compound treatment, all reagents were ordered from Cayman Chemical (Ann Arbor, MI, USA). Briefly, molecular compounds were added in the initiation of human CB CD34^+ cells culture, the time and concentration of each molecular compound for cell treatment was shown in figure legends. RNA extraction and real-time PCR. After cells were harvested by FACS, RNA was extracted by a RNeasy Mini Kit following manufacturer's protocol (Qiagen, 74106). Total RNA was reverse-transcribed by use of Superscript III kit (ThermoFisher, 18080093). Quantitative real-time PCR reactions were performed by SYBR Green PCR Master Mix (Thermo Fisher, Florence, KY, USA) and an Agilent Mx3000P QPCR System. Expression of housekeeping gene GAPDH was used as an internal control. Data are shown as relative mRNA level normalized to levels in vehicle control, set to 1.

YTHDF2 = experiment: Relative YTHDF2 expression level in human CB CD34+ cells; assay type: cell-based; settings: human CB CD34+ cells treated 20 hours
From the text: as §2
RNA extraction and real-time PCR. After cells were harvested by FACS, RNA was extracted by a RNeasy Mini Kit following manufacturer's protocol (Qiagen, 74106). Total RNA was reverse-transcribed by use of Superscript III kit (ThermoFisher, 18080093). Quantitative real-time PCR reactions were performed by SYBR Green PCR Master Mix (Thermo Fisher, Florence, KY, USA) and an Agilent Mx3000P QPCR System. Expression of housekeeping gene GAPDH was used as an internal control. Data are shown as relative mRNA level normalized to levels in vehicle control, set to 1.

[2] = system: phenotypic HSC (CD34+ CD38- CD45RA- CD90+ CD49f+); experiment: Chemotaxis (transwell migration) assay toward SDF-1, phenotypic HSCs; assay type: cell-based, human; settings: 20 h
Procedure: as §1

CB CD34+ cells = experiment: Colony-forming unit (CFU) assay; assay type: cell-based, human; settings: 20 h
human CB CD34+ cells [3] = experiment: Long-term engraftment / limiting dilution analysis (LDA) in NSG mice; assay type: in vivo; settings: for engraftment in NSG mice vs vehicle control (human CD45+ cells in BM): 20 h, 4 months after transplantation; for human myeloid and B-cell chimerism in BM: 10,000 CB CD34+ cells; for engraftment in secondary recipients vs vehicle: secondary NSG mice at 4 months; for SRC frequency (Poisson distribution analysis): vehicle 1/4761
Procedure: Limiting dilution analysis (LDA). Frequency of human SCID repopulating cells (SRCs) was determined by LDA as reported before. Increasing doses of GFP overexpressing CD34^+ cells (2500, 5000 or 10000 cells) were intravenously injected into sublethally irradiated NSG recipient mice (350 cGy; 137Cs source, single dose). Four months after transplantation, the percentage of GFP^+ human CD45^+ cell chimerism was analyzed by immunostaining and flow cytometry. For long-term engraftment assays that assess the self-renewal capacity of HSC, 3×10^6 BM cells from primary recipients of the 10000-cell group were intravenously transplanted into secondary sub-lethally irradiated NSG recipient mice.

human CB CD34+ cells [4] = experiment: Homing assay of treated human CB CD34+ cells in NSG mice; assay type: in vivo; settings: Raloxifene 40 μM, 20 h; 500,000 cells; 24 h after transplantation
Procedure: Homing assay. Homing of human CB CD34^+ cells was evaluated in NSG mice. Molecular compounds treated or siRNA transfected human CB CD34+ cells (500,000 for each mouse) were intravenously injected into sub-lethally irradiated (350 cGy) NSG mice. After 24 h, these recipient mice were sacrificed, BM cells from each mouse were collected. Cells were stained with anti-human CD45 antibody, then resuspended in 1% formaldehyde buffer. Flow cytometry analysis was performed to determine the percentage of human CD45^+ cells. BM cells from non-transplanted NSG mice served as negative controls.

Compound: c1cc(CN2CCCNCCNCCCNCC2)ccc1CN1CCCNCCNCCCNCC1 [AMD3100]
- blocking of Raloxifene- and Imatinib-enhanced chemotaxis toward SDF-1 (human CB CD34+ cells [1]; 5 μg/mL AMD3100 for 30 min before the chemotaxis assay): fully blocked
- blocking of AGII-enhanced migration toward SDF-1 (human CB CD34+ cells [1]; AMD3100 5 μg/mL for 30 min before assay, AGII-treated cells): blocked
- blocking of chemotaxis of human CB CD34+ cells to SDF-1 (human CB CD34+ cells [1]; AMD3100, Control or si-YTHDF2 transfected cells): blocked

Compound: Cc1noc(C)c1-c1cc(Cl)c(Nc2ccccc2C(=O)NO)c(Cl)c1 [FB23-2]
- effect of FTO inhibitor on AGII-induced CXCR4 upregulation (CXCR4): repressed

Compound: CC#CCC(C)[C@H](O)/C=C/[C@@H]1[C@H]2C/C(=C/CCCC(=O)O)C[C@H]2C[C@H]1O (some centres unmarked) [Iloprost]
- CXCR4 expression (MFI of cell surface CXCR4 protein level) (CXCR4): strongly upregulated
- effect of inhibition of mir-145 (sh-mir-145) on compound-induced CXCR4 expression (CXCR4): did not affect
- mir-145 expression (mir-145): strongly upregulated
- YTHDF2 expression (YTHDF2): downregulated

Compound: Cc1ccc(NC(=O)c2ccc(CN3CCN(C)CC3)cc2)cc1Nc1nccc(-c2cccnc2)n1 [Imatinib]
- migration to SDF-1 in phenotypic HSC population ([2]; Imatinib 10 μM): Enhanced migration
- colony output vs control group (CB CD34+ cells; Imatinib 10 μM): no significant difference
- chemotaxis of human CB CD34+ cells toward SDF-1 (human CB CD34+ cells [1]; Imatinib 10 μM): significantly enhanced
- engraftment in NSG mice vs vehicle control (human CD45+ cells in BM) (human CB CD34+ cells [3]; Imatinib 10 μM): significantly elevated
- human myeloid and B-cell chimerism in BM (human CB CD34+ cells [3]; Imatinib-treated cells): increased
- engraftment in secondary recipients vs vehicle (human CB CD34+ cells [3]; Imatinib-treated cells): Enhanced engraftment
- SRC frequency (Poisson distribution analysis) (human CB CD34+ cells [3]; Imatinib-treated cells): 1/1406

Compound: Cc1ccc(Cl)c(Nc2ccccc2C(=O)O)c1Cl [Meclofenamic Acid]
- effect of FTO inhibitor on AGII-induced CXCR4 upregulation (CXCR4): repressed

Compound: C[C@@H]1C[C@H]2[C@@H]3CCC4=CC(=O)C=C[C@]4(C)[C@@]3(Cl)[C@@H](O)C[C@]2(C)[C@@]1(O)C(=O)CCl [Mometasone]
- CXCR4 expression (MFI of cell surface CXCR4 protein level) (CXCR4): strongly upregulated
- effect of inhibition of mir-145 (sh-mir-145) on compound-induced CXCR4 expression (CXCR4): did not affect
- mir-145 expression (mir-145): strongly upregulated
- YTHDF2 expression (YTHDF2): downregulated

Compound: O=C(c1ccc(OCCN2CCCCC2)cc1)c1c(-c2ccc(O)cc2)sc2cc(O)ccc12 [Raloxifene]
- CXCR4 expression (MFI of cell surface CXCR4 protein level) (CXCR4): strongly upregulated
- effect of inhibition of mir-145 (sh-mir-145) on compound-induced CXCR4 expression (CXCR4): significantly blocked
- migration to SDF-1 in phenotypic HSC population ([2]; Raloxifene 40 μM): Enhanced migration
- colony output vs control group (CB CD34+ cells; Raloxifene 40 μM): no significant difference
- mir-145 expression (mir-145): strongly upregulated
- YTHDF2 expression (YTHDF2): downregulated
- chemotaxis of human CB CD34+ cells toward SDF-1 (human CB CD34+ cells [1]; Raloxifene 40 μM): significantly enhanced
- engraftment in NSG mice vs vehicle control (human CD45+ cells in BM) (human CB CD34+ cells [3]; Raloxifene 40 μM): significantly elevated
- human myeloid and B-cell chimerism in BM (human CB CD34+ cells [3]; Raloxifene-treated cells): increased
- engraftment in secondary recipients vs vehicle (human CB CD34+ cells [3]; Raloxifene-treated cells): Enhanced engraftment
- SRC frequency (Poisson distribution analysis) (human CB CD34+ cells [3]; Raloxifene-treated cells): 1/1818
- homing efficiency (human CD45+ cells in BM) (human CB CD34+ cells [4]): dramatically increased
